Data on 7 compounds can be found in ChEMBL document CHEMBL1201862, “PubChem BioAssay data set” (2004).

Test systems include 786-0; A498; A549; BT-549; HCC 2998; HCT-116; HT-29; LOX IMVI; M14; MDA-N; MOLT-4; Malme-3M; NCI-H23; NCI-H460; NCI-H522; OVCAR-4; OVCAR-8; SK-MEL-28; TK-10; U-251.
Test in all cases: inhibition of tumour cell growth, NCI panel, 48 h

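Where inhibition never reached the appropriate level, the endpoint shown equals the highest concentration tested. Otherwise, values were interpolated linearly from a five-concentration, 48-hour dose response in 96-well plates. GI50: concentration for 50% inhibition of growth.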 The source made the active and inactive calls. Cut-off read from the data, not from the text of the source: active = GI50 up to about 1.1 µM and inactive = higher. A value given as a limit tells only on which side of the number the result lay.

Consider `COc1cccc(C2C3=C(COC3=O)Oc3cc4c(cc32)OCO4)c1` (stereo not drawn), for which the GI50 is 0.0344 µM (active) in the assay with 786-0; 0.0264 µM (active) in the assay on A498; 0.0412 µM (active) in the assay on A549; > 100 µM (inactive) with BT-549; 0.0723 µM (active) in the assay with HCC 2998; 0.0264 µM (active) in the assay on HCT-116. Also, the GI50 was 0.0309 µM (active) with HT-29; < 0.0155 µM (active) in the assay with LOX IMVI; 0.0307 µM (active) with M14; < 0.01 µM (active) in the assay on MDA-N; 0.0256 µM (active) with MOLT-4; 0.0248 µM (active) in the assay with Malme-3M. In addition, the GI50 with NCI-H23 is 0.0653 µM (active); in the assay on NCI-H460, 0.0267 µM (active); with NCI-H522, < 0.01 µM (active); in the assay with OVCAR-4 it was 0.424 µM (active); in the assay on OVCAR-8, 0.0421 µM (active); in the assay with SK-MEL-28 it was 0.0327 µM (active). The GI50 in the assay with TK-10 was 0.0766 µM (active); in the assay on U-251, 0.0445 µM (active).

Turning to `CC1=C(C(=O)Nc2ccccc2)C(c2ccc(C)o2)C(C#N)=C(SCc2ccccc2)N1` (stereo not drawn), the GI50 in the assay with 786-0 was > 100 µM (inactive); in the assay on A498, > 81.5 µM (inactive); in the assay with A549 it was > 90.4 µM (inactive); with BT-549, 43.4 µM (inactive); in the assay on HCC 2998, > 100 µM (inactive); in the assay on HCT-116, 33.3 µM (inactive). Also, the GI50 in the assay with HT-29 was 34.9 µM (inactive); with LOX IMVI, > 100 µM (inactive); in the assay with M14, > 100 µM (inactive); in the assay on MDA-N it was 5.38 µM (inactive); in the assay on MOLT-4 it was 7.55 µM (inactive); with Malme-3M, 5.77 µM (inactive). The GI50 in the assay with NCI-H23 was > 100 µM (inactive); with NCI-H460, > 100 µM (inactive); with NCI-H522, 9.55 µM (inactive); in the assay on OVCAR-4, > 72.3 µM (inactive); in the assay with OVCAR-8, > 100 µM (inactive); in the assay with SK-MEL-28, > 100 µM (inactive). Further, the values for the GI50 in the assay on TK-10 and in the assay on U-251 were > 65.3 µM (inactive) and > 100 µM (inactive), respectively.

Regarding `COc1cc2c(c(OC)c1OC)-c1ccc(SC)c(=O)cc1[C@@H](O)CC2`, the GI50 was 0.000834 µM (active) in the assay with 786-0; 0.0305 µM (active) in the assay with A498; 0.000895 µM (active) in the assay with A549; 0.00168 µM (active) in the assay on BT-549; 0.00122 µM (active) with HCC 2998; 0.000381 µM (active) with HCT-116. The GI50 was 0.000294 µM (active) with HT-29; 0.00078 µM (active) with LOX IMVI; 0.000333 µM (active) in the assay on M14; 0.000121 µM (active) in the assay on MDA-N; 0.00108 µM (active) with MOLT-4; 0.00021 µM (active) in the assay with Malme-3M. Also, the GI50 was 0.000803 µM (active) in the assay with NCI-H23; 0.000586 µM (active) in the assay with NCI-H460; 0.00065 µM (active) in the assay on NCI-H522; > 1 µM (active) with OVCAR-4; 0.00107 µM (active) in the assay with OVCAR-8; 0.0222 µM (active) in the assay with SK-MEL-28. Besides, the GI50 with TK-10 was > 1 µM (active); in the assay on U-251, 0.000378 µM (active).

With `O=C1C(Cl)=C(Nc2ccc(S(=O)(=O)Nc3ccccn3)cc2)C(=O)c2ccccc21`, the GI50 in the assay on 786-0 was 8.22 µM (inactive); in the assay on A498 it was 20.7 µM (inactive); in the assay with A549 it was 18.7 µM (inactive); with BT-549 it was 14.4 µM (inactive); in the assay on HCC 2998 it was 12.2 µM (inactive); in the assay on HCT-116, 6.24 µM (inactive). Moreover, the GI50 in the assay on HT-29 was 7.5 µM (inactive); in the assay with LOX IMVI, 1.78 µM (inactive); with M14, 5.93 µM (inactive); with MDA-N, 6.46 µM (inactive); in the assay on MOLT-4 it was 3.61 µM (inactive); in the assay with Malme-3M, 2.96 µM (inactive). The GI50 was 10.8 µM (inactive) with NCI-H23; 4.53 µM (inactive) in the assay on NCI-H460; 5.02 µM (inactive) with NCI-H522; 17.3 µM (inactive) in the assay with OVCAR-4; 4.09 µM (inactive) in the assay on OVCAR-8; 16.3 µM (inactive) in the assay on SK-MEL-28. In addition, the GI50 in the assay with TK-10 is 7.98 µM (inactive); in the assay with U-251, 5.6 µM (inactive).

Take `O[C@@H]1C[C@H]2N3CC[C@@]2(c2cc4c(cc2C3)OCO4)[C@H]2O[C@@H]12`: the GI50 in the assay with 786-0, in the assay with A498, with A549, with BT-549, with HCC 2998 and in the assay with HCT-116 was > 100 µM (inactive) throughout. In addition, the GI50 in the assay on HT-29, in the assay on LOX IMVI, in the assay with M14, with MDA-N, in the assay on MOLT-4 and with Malme-3M was > 100 µM (inactive) in each case. In addition, the GI50 in the assay on NCI-H23, with NCI-H460, in the assay with NCI-H522, with OVCAR-4, with OVCAR-8 and in the assay with SK-MEL-28 was > 100 µM (inactive) throughout. Further, the GI50 with TK-10 and in the assay with U-251 was > 100 µM (inactive) each time.

Regarding `c1ccc(N2N=C3N(c4ccccc4)C2N3c2ccccc2)cc1`, the GI50 is 33.1 µM (inactive) in the assay on A498; 47.3 µM (inactive) in the assay with A549; 68.2 µM (inactive) in the assay with BT-549; 27.6 µM (inactive) with HCC 2998; 31.3 µM (inactive) with HCT-116; 29.4 µM (inactive) in the assay with HT-29. In addition, the GI50 was 21.1 µM (inactive) in the assay with LOX IMVI; 20.3 µM (inactive) with M14; 19.4 µM (inactive) in the assay with MDA-N; 16.5 µM (inactive) in the assay on MOLT-4; 17.5 µM (inactive) in the assay with Malme-3M; 37.9 µM (inactive) with NCI-H23. Besides, the GI50 in the assay on NCI-H460 is 31.1 µM (inactive); in the assay on NCI-H522, 21.6 µM (inactive); with OVCAR-4, 35.6 µM (inactive); in the assay on OVCAR-8, 35.9 µM (inactive); with SK-MEL-28, 19.1 µM (inactive); with TK-10, 71.3 µM (inactive). For the same compound, the GI50 in the assay with U-251 was 46.8 µM (inactive).

Turning to `Cn1c(=S)[nH]c2sc3c(c2c1=O)CCSC3`, the GI50 was 76.6 µM (inactive) with 786-0; 31.6 µM (inactive) in the assay on A498; 43.1 µM (inactive) with A549; 32.4 µM (inactive) in the assay with BT-549; 21.8 µM (inactive) in the assay on HCC 2998; 34.8 µM (inactive) in the assay on HCT-116. The GI50 with HT-29 is 29.9 µM (inactive); with LOX IMVI, 36.6 µM (inactive); in the assay on M14, 35.2 µM (inactive); with MDA-N, 54.7 µM (inactive); in the assay on MOLT-4, 33.8 µM (inactive); in the assay with Malme-3M, 58.2 µM (inactive). The GI50 in the assay on NCI-H23 was 36.9 µM (inactive); in the assay on NCI-H460 it was 35.8 µM (inactive); with NCI-H522, 36.9 µM (inactive); in the assay on OVCAR-4 it was 43 µM (inactive); with OVCAR-8 it was 39.8 µM (inactive); in the assay on TK-10, 80.5 µM (inactive). Further, in the assay with U-251, the GI50 is 40.5 µM (inactive).
